Earlier results as cited in patent US11446359B2, “Systems and methods for cardiac plexus neuromodulation” (Tulavi Therapeutics, Inc., priority 2015, dated 2022).

What was measured:
[1] = 2.5 ml 0.25% with epinephrine
asthma [2] = test system: asthma
[3] = test system: thoracic sympathetic ganglia and rami
asthma [4] = test system: asthma; remark: listed apart in the source
lumbar chain = details: remaining 4 required a second block
axons and Schwann cells = details: in vivo
[5] = in vivo

## C[C@H](CCCC(C)(C)O)[C@H]1CC[C@H]2[C@@H]3CC=C4C[C@@H](O)CC[C@]4(C)[C@H]3CC[C@]12C [25-OH-cholesterol]
Sympathetic ganglia
  relative potency among cholesterol oxides: most potent

## CCCCN1CCCCC1C(=O)Nc1c(C)cccc1C (centres unmarked) [Marcaine]
[1]
  duration of relief: 1 to 10 days
  duration of relief, median: 4 days

## CCO [absolute alcohol, ethanol]
Asthma [2]; case studies, n=5, 2.5 cc absolute alcohol per injection
  patients with complete disappearance of asthma: 100%
Asthma [2]; further work, 13/18 cases
  cases with complete relief: 72%
[3]; 23 cases
  patients with complete relief: 75%
[3]; severe intractable asthma cases (Levin 1935)
  cases with cure or dramatic improvement in asthma: 75%
Asthma [4]; case studies, n=3, 1 cc absolute alcohol
  patients free of asthma: 100%
Asthma [4]; further cases
  cases that obtained complete relief: 80%
Lumbar chain
  patients that required one injection only: 19/23

## Oc1ccccc1 [phenol]
Axons and Schwann cells
  time at which regeneration in the periphery may begin: 2 weeks
[5]
  bilateral sensory blockade: 1.3%
  intrathecal injection observed: 0.52%
  transient hypertension: 4.6%
